Test results: patent US20090075925A1, “Methods and Compositions Related to APOBEC-1 Expression” (priority 2006, published 2009)
Like-named read-outs stand apart in the source and are kept apart here.

How the values were obtained:
[1] = test system: PP2A; details: cited from earlier work
[2] = test system: apoB protein; experiment: intracellular and secreted apoB protein in primary hepatocytes (radioimmunoassay); assay type: cell-based, rat
Procedure: The effect of Cantharidin on the abundance of intracellular and secreted apoB protein was also evaluated. Primary hepatocyte cultures were treated with Cantharidin at the IC50 of PP1 and 10-times higher (n=5 for each condition). Intracellular apoB protein in hepatocyte cytoplasmic extracts and apoB protein secreted into the media as VLDL was quantified as ng apoB protein per mg total protein in the Sparks' lab by radioimmunoassay using a monoclonal antibody against apoB as described previously (Chirieac et al. (2000), Au et al. (2004), Sparks, J D and Sparks, C E J Biol Chem 265:8854-62 (1990)) (FIG. 13). For these experiments, insulin was withdrawn from control and Cantharidin-treated cultures 24 hours prior to the addition of Cantharidin in order to isolate the effect of PP 1 inhibition in the absence of insulin stimulated kinase activity.
If alterations in ACF phosphorylation are consequently to ApoB metabolism, then intracellular ApoB protein abundance should be responsive to inhibition of PP1. This was evaluated in treated primary hepatocytes by quantifying ApoB protein in hepatocyte cytoplasmic extracts and secreted into the media as VLDL using ApoB radioimmunoassay and expressed as ng ApoB protein per mg total protein (FIG. 13). For these experiments insulin was withdrawn from control and cantharidin-treated cultures 24 hours prior to the addition of cantharidin in order to isolate the effect of PP I inhibition in the absence of insulin stimulated kinase activity. […] This is the same dose response that was reported for maximal phospho-ACF recovery Mehta, A. et al (2002)).

[3] = test system: ACF; experiment: ACF phosphorylation in 32P-labeled rat primary hepatocytes (ACF immunoprecipitation, autoradiography); assay type: cell-based
Procedure: In vivo phosphorylation of ACF. In vivo ^32P labeling was performed by intraperitoneal injection of rats with 12.5 mCi of orthophosphoric acid (10 mCi/ml ^32PO4; NEN, Boston, Mass.) buffered with 50 mM HEPES, pH 7.0 and 150 mM NaCl. After 4 hours, rats were sacrificed and hepatic cytoplasmic and nuclear extracts prepared. Primary hepatocyte cultures in 60 mm dishes were incubated in phosphate-free Minimum Essential Eagle Media (Sigma) containing 0.1 nM porcine insulin for 6 hours and subsequently in fresh media containing 10 nM insulin (equivalent to that seen in post-prandial serum) or 0.45% to 0.9% ethanol (AAPER Alcohol and Chemical Co., Shelbyville, Ky.) (Van Mater et al. (1998), Yang et al. (2000)) plus 2.0 mCi orthophosphoric acid. Cultures were labeled for 4 hours prior to extract preparation.
To evaluate the effect of phosphatase inhibition on ACF phosphorylation, cultures were pre-incubated for 2 hours with 470 nM cantharadin in phosphate-free Waymouth's media and subsequently supplemented with 0.5 mCi ^32pO4 and incubated for an additional 4 hours. Cultures were harvested and subcellular extracts prepared.
Immunological techniques. […] For immunoprecipitation analyses all radiolabeled extracts were adjusted to 5 mM MgCl2 and digested with 100 units of DNase I (Promega), RNase T1 (Roche, Ind.), and RNase A (Sigma) for 1 hour on ice to remove radiolabeled nucleic acid. Where applicable, extracts were incubated overnight with ACF CT antibody at 4° C. and subsequently reacted with Protein A-agarose (Oncogene Research Products, Boston, Mass.) pre-washed with 1×TBS/10 mM NaF. The immuno-absorbed material was washed 3 times with 1×TBS/10 mM NaF, 3 times with 1×TBS/1 M NaCl (Yang et al. (1997)) and lastly 3 times with 1×TBS. Immuno-absorbed material to be treated with alkaline phosphatase was washed with 50 mM Tris, pH 8.4, 1 mM MgCl2, 0.1 mM ZnCl2, 25% glycerol and then incubated with 5 U CIAP for 1 hour at 30° C. and then washed 6 times with 1×TBS. ACF-antibody complexes were eluted with 3 M sodium thiocyanate, acetone precipitated and analyzed by 10.5% SDS-PAGE followed by autoradiography and/or western blotting with ACF NT antibody. For ACF immunoprecipitation from gradient fractions an equal volume of pooled gradient fractions from sedimentation zones of interest were reacted with sub-saturating amounts of ACF CT antibody to ensure that the recovery of phospho-ACF was not simply a reflection of ACF abundance in each zone.
To evaluate this, cytoplasmic and nuclear extracts from radiolabeled primary hepatocyte cultures were sedimented through 10%-50% glycerol gradients. […] The ACF immunoprecipitates were resolved by SDS-PAGE, transferred to nitrocellulose, autoradiographed and subjected to phosphorimager scanning to detect and quantify radiolabeled proteins prior to immunoblotting with the ACF NT antibody.

[4] = test system: ACF
[5] = test system: apoB mRNA editing; details: for apoB mRNA editing, Mean ± SEM: 6 hours; for apoB mRNA editing (increased from 66%): about 10 times the IC50 for PP1 (cantharidin 4.7 μM)
Procedure: Protein phosphatase inhibitor studies. […] The compounds' effects on apoB mRNA editing were evaluated by RT-PCR and poisoned-primer extension analysis (Sowden et al. Rna 2:274-88 (1996)). The effect of 470 nM cantharidin on ACF subcellular distribution was investigated by treating primary hepatocyte cultures for 6 hours followed by nuclear and cytoplasmic extract preparation.
It was reasoned that if phosphorylation of ACF regulated editing activity, treatment of rat primary hepatocytes with phosphatase inhibitors might stimulate apoB mRNA editing activity. […] The experiments (n=4-6) were done over a number of months and therefore represent primary hepatocytes from several rats.
Editing activity was quantified from primary hepatocytes incubated with 10-100-times the EC50 of the various […] (Calbiochem).

[6] = test system: PP1; details: cited from earlier work
[7] = test system: AC; details: cited from earlier work
[8] = test system: apoB mRNA editing; experiment: apoB mRNA editing in McArdle cells (ethanol, ACF wild type, mutants and isoforms); assay type: cell-based, rat; details: wild type McArdle cells, ethanol 4 hours
Procedure: McArdle RH7777 cells (ATCC Manassas, Va.) stably expressing HA epitope-tagged APOBEC-1 (Yang et al. J Biol Chem 272:27700-6 (1997)) were treated for 4 hours with 0.9% ethanol and fractionated into nuclear extracts (Van Mater et al. (1998)).
To calibrate the system cells were incubated in the presence of ethanol for 4 hours and the amount of edited apoB mRNA determined.
The overall expression and subcellular localization of epitope tagged ACF isoforms is established by western blotting of nuclear and cytoplasmic extracts (prepared using NE-PER system; Pierce). These biochemical studies are complemented by immunofluorescence microscopy of paraformaldehyde fixed cells reacted with epitope tag or ACF isoform-specific antibodies. In pilot experiments varying levels of HA-tagged ACF43 and ACF45 were expressed by transfecting differing amounts of cDNA into McArdle or McAPOBEC cells (FIGS. 35A & C, western blots). […] ACF expression levels, subcellular localization and editing activity are determined from replicate experiments and the relative affects of overexpressing each isoform compared in the absence (negative control) or presence of ethanol and to the response seen in wild type cells (positive control).

[9] = 0.5 μM (IC50 of PP1), insulin withdrawn 24 hours before
[10] = activation of cAMP dependent kinases

C[C@@]12C(=O)OC(=O)[C@]1(C)[C@H]1CC[C@@H]2O1 [Cantharidin]
IC50 [1]: 40 nM | IC50 ([1]; listed as cantharidin): 47 nM | reduction in intracellular (cell) apoB relative to untreated hepatocytes [2, 9]: 22% | reduction in secreted (media) apoB relative to untreated hepatocytes [2, 9]: 17% | reduction in secreted apoB ([2]; 5 μM): ≥ 30% | reduction in intracellular apoB ([2]; 5 μM (10-times the IC50)): ≥ 60% | ACF phosphorylation ([3]; 470 nM): increased | nuclear ACF (control nuclear to cytoplasmic 1:1) ([4]; 470 nM, 4 hours): five-fold increase in nuclear ACF | nuclear ACF compared to untreated control hepatocytes ([4]; 0.5 μM (IC50 of PP1)): marked increase in nuclear ACF | apoB mRNA editing, Mean ± SEM ([5]; 4.7 nM): 62 ± 2% | apoB mRNA editing, Mean ± SEM ([5]; 47 nM): 64 ± 1% | apoB mRNA editing, Mean ± SEM ([5]; 470 nM): 75 ± 1% | effect on apoB mRNA editing ([5]; 470 nM, the IC50 for PP1): reproducible, but not statistically significant increase in editing | apoB mRNA editing, Mean ± SEM ([5]; 4.7 μM): 91 ± 1% | apoB mRNA editing (increased from 66%) [5]: > 90% | effect on apoB mRNA editing ([5]; concentration not given): stimulated apoB mRNA editing | IC50 [6]: 473 nM | IC50 ([6]; listed as cantharidin): 470 nM

O=S(=O)(c1cccc2c(I)cccc12)N1CCCNCC1 [ML-7]
effect on editing in hepatocytes [5]: did not affect editing

CC1(C)C(C=C(Cl)Cl)C1C(=O)OC(C#N)c1cccc(Oc2ccccc2)c1 (centres unmarked) [Cypermethrin]
apoB mRNA editing, Mean ± SEM ([5]; 50 pM): 69 ± 4% | apoB mRNA editing, Mean ± SEM ([5]; 5 nM): 66 ± 4% | effect on apoB mRNA editing ([5]; concentration not given): did not affect significantly apoB mRNA editing

C=C[C@@]1(C)CC(=O)[C@]2(O)[C@@]3(C)[C@@H](O)CCC(C)(C)[C@@H]3[C@H](O)[C@H](OC(C)=O)[C@@]2(C)O1 [Forskolin]
apoB mRNA editing, Mean ([5]; 4 μM): 70.6% | apoB mRNA editing, Mean ([5]; 40 μM): 68.5% | apoB mRNA editing, Mean ([5]; 120 μM): 69%

COc1cccc(-c2cc(=O)c3ccccc3o2)c1N [PD98059]
effect on editing in hepatocytes [5]: did not affect editing

COc1ccc(S(=O)(=O)N(CCO)c2ccccc2CN(C)C/C=C/c2ccc(Cl)cc2)cc1 [KN93]
effect on editing in hepatocytes [5]: stimulated

Glucagon
apoB mRNA editing, Mean ([5]; 1 nM): 62.2% | apoB mRNA editing, Mean ([5]; 10 nM): 59.5% | apoB mRNA editing, Mean ([5]; 100 nM): 58.3% | EC50 [7, 10]: 0.1 to 100 nM | EC50 ([7]; activation of cAMP dependent kinases, listed as glucagon): 50 nM

CCO [ethanol]
increase in editing activity [8]: 52% | percent editing (from 21%) [8]: 32% | increase of phosphoACF in nuclear 27S editosomes ([3]; 0.45% ethanol, 4 hours): 3.5 fold | increase of phosphoserine in immunopurified ACF ([3]; 0.9% ethanol during the labeling period): 1.5 fold | editing in metabolic state of rat hepatocytes (model, basal ~65%) [5]: ~95%

O=C(O)[C@@H]1[C@H](C(=O)O)[C@H]2CC[C@@H]1O2 [Endothall]
apoB mRNA editing, Mean ± SEM ([5]; 100 nM): 66 ± 2% | apoB mRNA editing, Mean ± SEM ([5]; 500 nM): 65 ± 2% | apoB mRNA editing, Mean ± SEM ([5]; 5 μM): 64 ± 3% | apoB mRNA editing, Mean ± SEM ([5]; 50 μM): 83 ± 2% | effect on apoB mRNA editing ([5]; 10-times the IC50 for PP1): stimulated editing to statistically significant levels

CC(C)NCC(O)c1ccc(O)c(O)c1 (centres unmarked) [Isoproterenol]
EC50 [7, 10]: 50000 nM | EC50 ([7]; range printed with mixed units): 1 to 100000 nM

O=S(=O)(NCCNC/C=C/c1ccc(Br)cc1)c1cccc2cnccc12 [H89]
effect on editing in hepatocytes [5]: stimulated

C=C1[C@@H](O)[C@@H]2O[C@]3(CC[C@H](/C=C/[C@@H](C)[C@@H]4CC(C)=C[C@@]5(O[C@H](C[C@@](C)(O)C(=O)O)CC[C@H]5O)O4)O3)CC[C@H]2O[C@@H]1[C@@H](O)C[C@H](C)[C@H]1O[C@@]2(CCCCO2)CC[C@H]1C [Okadaic acid]
apoB mRNA editing, Mean ± SEM ([5]; 1 nM): 72 ± 4% | apoB mRNA editing, Mean ± SEM ([5]; 10 nM): 74 ± 4% | apoB mRNA editing, Mean ± SEM ([5]; 100 nM): 91 ± 2% | apoB mRNA editing (increased from 66%) [5]: greater than 90% | effect on apoB mRNA editing ([5]; concentration not given): stimulated

CCCCCCCCCCCCCC(=O)O[C@@H]1[C@@H](C)[C@@]2(O)[C@@H](C=C(CO)C[C@]3(O)C(=O)C(C)=C[C@@H]23)[C@@H]2C(C)(C)[C@]12OC(C)=O [PMA]
apoB mRNA editing, Mean ([5]; 500 nM): 68.8% | apoB mRNA editing, Mean ([5]; 5 μM): 64.9% | apoB mRNA editing, Mean ([5]; 50 μM): 63%
